Where two headings read alike, the source gives them in different places.
Columns and labels:
A375 cells [1] = assay: Proliferation assay (Alamar Blue, 96 hours) on parental and dose-escalated A375 cell lines; settings: Homo sapiens
Experimental: (§2) Cancer cell lines were maintained in cell culture under standard media and serum conditions. For dose escalation studies, A375 cells were split, grown to about 40-60% confluence, and then treated with the initial dose of the specified drug.
(§3) Proliferation assays were used to track changes in sensitivity to the escalated agent(s) at appropriate time intervals (e.g. each month, although the timing is dependent on adequate cell numbers being available). For proliferation assays, cells were seeded in 96-well plates at 3000 cells per well in drug-free DMEM medium containing 10% FBS and allowed to adhere overnight prior to addition of compound or vehicle control. […] Test compounds were incubated with the cells for 96 hours at 37° C. and 5% CO2 in a humidified atmosphere. Alamar Blue 10% (v/v) was then added and incubated for 4 hours and fluorescent product was detected using a BMG FLUOstar plate reader. The average media only background value was deducted and the data analyzed using a 4-parameter logistic equation in GraphPad Prism. Paclitaxel was used as a positive control.

A375 cells [2] = tested on: A375 cells
Experimental: as §2, §3

A375 = assay: Single agent proliferation assay (CellTiter-Glo, 72 h); format: cell-based, human; settings: Homo sapiens, A-375; A375, 72 h
Experimental: (§1) Cells were seeded in 96-well plates at the densities and media conditions indicated in Table 17 and allowed to adhere overnight prior to addition of compound or vehicle control. Compounds were prepared from DMSO stocks to give the desired final concentrations. The final DMSO concentration was constant at 0.1%. Test compounds were incubated with the cells for 72 h at 37° C., 5% CO2 in a humidified atmosphere. CellTiter-Glo® reagent (Promega, Madison, Wis.) was added according to manufacturer's instructions and luminescence detected using the BMG FLUOstar plate reader (BMG Labtech, Ortenberg, Germany). The average media only background value was deducted and the data analysed using a 4-parameter logistic equation in GraphPad Prism (GraphPad Software, La Jolla, Calif.).

G-361 = assay: as above; format: cell-based; settings: Homo sapiens, G-361, 72 h
Experimental: as §1

## CC(=O)O[C@H]1C(=O)[C@@]2(C)[C@H]([C@H](OC(=O)c3ccccc3)[C@]3(O)C[C@H](OC(=O)[C@H](O)[C@@H](NC(=O)c4ccccc4)c4ccccc4)C(C)=C1C3(C)C)[C@]1(OC(C)=O)CO[C@@H]1C[C@@H]2O [Paclitaxel]
A375 cells [1]; A-375, read-out: Relative IC50, Month 1, Par = Parental cell line
  IC50: 2.2 nM
A375 cells [1]; A-375, read-out: Relative IC50, Month 1, cell line BVD-523 (0.48 μM)
  IC50: 3.4 nM
A375 cells [1]; A-375, read-out: Relative IC50, Month 1, cell line Dab (15 nM Dab)
  IC50: 3.3 nM
A375 cells [1]; A-375, read-out: Relative IC50, Month 1, cell line Dab/523 (7.5 nM/0.24 μM)
  IC50: 3.4 nM
A375 cells [1]; A-375, read-out: Relative IC50, Month 1, cell line Tram (growing in 2 nM Tram)
  IC50: 3 nM
A375 cells [1]; A-375, read-out: Relative IC50, Month 2, Par = Parental cell line
  IC50: 3.7 nM
A375 cells [1]; A-375, read-out: Relative IC50, Month 2, cell line BVD-523 (0.8 μM)
  IC50: 6.5 nM
A375 cells [1]; A-375, read-out: Relative IC50, Month 2, cell line Dab (127 nM Dab)
  IC50: 1.9 nM
A375 cells [1]; A-375, read-out: Relative IC50, Month 2, cell line Dab/523 (12.5 nM/0.4 μM)
  IC50: 4.2 nM
A375 cells [1]; A-375, read-out: Relative IC50, Month 2, cell line Tra (8 nM Tram)
  IC50: 8.9 nM
A375 cells [1]; A-375, read-out: Relative IC50, Month 3, Par = Parental cell line
  IC50: 1.9 nM
A375 cells [1]; A-375, read-out: Relative IC50, Month 3, cell line Dab (3.2 μM Dab)
  IC50: 1.9 nM
A375 cells [2]
  IC50: 4.7 nM
A375
  IC50: 5 nM
G-361
  IC50: 7 nM

Reference: patent US10668055B2, “Cancer treatment using combinations of ERK and RAF inhibitors” (BIOMED VALLEY DISCOVERIES, INC., priority 2013, dated 2020)
